Test results: BindingDB's records for patent US12440494 (Albert Einstein College of Medicine, 2025)

Target: Serine/threonine-protein kinase B-raf [V600E] (Homo sapiens, UniProt P15056, V600E)
Assay: Kinase Activity Assay
Procedure: BRAF kinase assays were performed using the Z′-LYTE™ enzymatic assay (Invitrogen, USA). […] Titrations were performed using a 1:3 dilution. Assays were performed using Select Screen (Invitrogen).

Sequence of Serine/threonine-protein kinase B-raf [V600E] (P15056 2-766 V600E limits assumed): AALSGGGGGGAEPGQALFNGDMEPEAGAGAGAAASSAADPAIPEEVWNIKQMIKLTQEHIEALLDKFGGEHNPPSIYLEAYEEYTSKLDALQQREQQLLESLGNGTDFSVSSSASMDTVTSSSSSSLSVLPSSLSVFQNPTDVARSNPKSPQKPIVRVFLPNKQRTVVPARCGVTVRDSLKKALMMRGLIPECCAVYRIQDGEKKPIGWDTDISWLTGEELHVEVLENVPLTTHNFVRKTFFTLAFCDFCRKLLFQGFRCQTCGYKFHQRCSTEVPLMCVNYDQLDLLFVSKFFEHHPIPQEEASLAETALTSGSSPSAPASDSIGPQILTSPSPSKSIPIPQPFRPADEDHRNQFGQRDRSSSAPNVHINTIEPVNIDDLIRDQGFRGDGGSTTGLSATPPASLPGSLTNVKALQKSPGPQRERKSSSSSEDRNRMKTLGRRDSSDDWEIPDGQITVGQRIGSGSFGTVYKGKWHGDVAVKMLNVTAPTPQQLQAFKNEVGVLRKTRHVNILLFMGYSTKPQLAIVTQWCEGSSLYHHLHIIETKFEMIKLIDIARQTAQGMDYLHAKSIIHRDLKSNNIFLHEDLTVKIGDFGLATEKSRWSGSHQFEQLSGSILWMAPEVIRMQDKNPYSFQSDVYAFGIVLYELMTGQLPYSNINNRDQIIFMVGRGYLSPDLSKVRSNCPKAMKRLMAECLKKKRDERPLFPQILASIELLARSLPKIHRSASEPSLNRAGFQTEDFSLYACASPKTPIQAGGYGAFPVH

IC50: 17.8 nM
Compound: COC(=O)N1CCN(CCNCc2ccc(NC(=O)c3ccc(C)c(C#Cc4cnc5cccnn45)c3)cc2C(F)(F)F)CC1 [US12440494, Compound 2]
